Measured values reported in patent publication US12570695B2, “Bicyclic peptide ligands specific for EphA2” (priority 2019, dated 2026).
Starred links: 1 amine or outer side, 2 acyl side, 3 side chain; linkers in the order of their positions; H or OH if unused. Positions of bridges follow the written chain, without caps; N, C: chain ends. Non-standard residues stand in square brackets, D forms with d. Residues, ends and D or L forms follow the SMILES beside them. TATA = O=C(CC[*:1])N1CN(C(=O)CC[*:2])CN(C(=O)CC[*:3])C1; 1Nal = N[C@@H](Cc1cccc2ccccc12)C(=O)O; d1Nal = N[C@H](Cc1cccc2ccccc12)C(=O)O; Hyp = O=C(O)[C@@H]1C[C@@H](O)CN1; hArg = N=C(N)NCCCC[C@H](N)C(=O)O; Aad = N[C@@H](CCCC(=O)O)C(=O)O; NMeA = CN[C@@H](C)C(=O)O

These molecules were tested against human EphA2 (Homo sapiens, UniProt P29317) (assay: biochemical).
Sequence of human EphA2 (P29317 24-976): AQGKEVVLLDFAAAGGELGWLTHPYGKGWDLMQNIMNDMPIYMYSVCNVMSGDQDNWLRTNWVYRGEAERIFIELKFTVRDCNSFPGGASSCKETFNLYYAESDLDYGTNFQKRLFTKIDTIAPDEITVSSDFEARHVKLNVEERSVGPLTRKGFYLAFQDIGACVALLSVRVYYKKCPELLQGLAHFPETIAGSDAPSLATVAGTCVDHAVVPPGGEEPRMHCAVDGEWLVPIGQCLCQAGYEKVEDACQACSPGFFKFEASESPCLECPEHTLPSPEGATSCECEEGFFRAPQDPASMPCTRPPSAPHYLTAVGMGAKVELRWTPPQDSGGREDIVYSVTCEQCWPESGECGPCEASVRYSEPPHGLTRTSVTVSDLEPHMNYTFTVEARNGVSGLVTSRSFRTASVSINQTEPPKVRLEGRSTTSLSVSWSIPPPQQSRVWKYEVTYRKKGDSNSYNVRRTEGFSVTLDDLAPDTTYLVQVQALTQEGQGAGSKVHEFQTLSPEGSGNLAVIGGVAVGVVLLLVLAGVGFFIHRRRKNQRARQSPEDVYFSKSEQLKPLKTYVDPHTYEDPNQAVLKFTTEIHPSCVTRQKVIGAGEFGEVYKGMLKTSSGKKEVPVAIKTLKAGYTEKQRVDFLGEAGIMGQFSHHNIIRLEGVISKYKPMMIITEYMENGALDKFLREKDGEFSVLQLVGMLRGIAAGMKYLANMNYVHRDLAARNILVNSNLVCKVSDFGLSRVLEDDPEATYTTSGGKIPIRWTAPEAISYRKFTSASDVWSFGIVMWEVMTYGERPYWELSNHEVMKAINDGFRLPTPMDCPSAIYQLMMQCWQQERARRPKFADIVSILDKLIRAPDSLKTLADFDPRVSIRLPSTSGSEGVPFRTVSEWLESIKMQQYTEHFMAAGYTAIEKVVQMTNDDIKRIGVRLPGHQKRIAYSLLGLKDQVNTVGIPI
Experimental: Peptides without a fluorescent tag were tested in competition with a peptide with a fluorescent tag and a known Kd.
Peptides were diluted to an appropriate concentration in assay buffer as described in the direct binding assay with a maximum of 5% DMSO, then serially diluted 1 in 2. […] Measurements were conducted, however the gain was determined prior to the first measurement. Data analysis was in Systat Sigmaplot version 12.0 where the mP values were fit to a user defined cubic equation to generate a Ki value:
“Lig”, “KLig” and “Prot” were all defined values relating to: fluorescent peptide concentration, the Kd of the fluorescent peptide and EphA2 concentration respectively.
Molecule `CC(C)C[C@@H]1NC(=O)[C@@H]2C[C@@H](O)CN2C(=O)[C@@H](NC(=O)[C@H](CC(=O)O)NC(=O)[C@H](CCCCNC(=N)N)NC(=O)[C@H](C)N)CSCCC(=O)N2CN3CN(C2)C(=O)CCSC[C@H](NC(=O)[C@H](CC(C)C)NC(=O)[C@@H]2CCCN2C(=O)[C@H](CC(N)=O)NC(=O)[C@H](C(C)C)NC1=O)C(=O)N[C@@H](CCCC(=O)O)C(=O)N[C@@H](Cc1c[nH]cn1)C(=O)N1CCC[C@H]1C(=O)N[C@H](CC(=O)O)C(=O)N[C@@H](Cc1c[nH]c2ccccc12)C(=O)N[C@@H](CCCCNC(=N)N)C(=O)N[C@H](C(N)=O)CSCCC3=O` [BCY13131, A-[HArg]-D-Ci[HyP]LVNPLCii[hGlu]HP[dD]W[HArg]Ciii] (H-A[hArg]DC[Hyp]LVNPLC[Aad]HP[dD]W[hArg]C-NH2; linker 4-11-18 via TATA; N-terminus and C-terminus assumed) has a Ki of 27.1 nM.
`CC(C)C[C@@H]1NC(=O)[C@@H]2CSCCC(=O)N3CN(CN(C3)C(=O)CCSC[C@H](NC(=O)[C@H](CC(=O)O)NC(=O)[C@H](CCCCNC(=N)N)NC(=O)[C@H](C)N)C(=O)N3C[C@H](O)C[C@H]3C(=O)N[C@@H](CC(C)C)C(=O)N[C@@H](C(C)C)C(=O)N[C@@H](CC(N)=O)C(=O)N3CCC[C@H]3C(=O)N[C@@H](CC(C)C)C(=O)N2)C(=O)CCSC[C@@H](C(N)=O)NC(=O)[C@H](CCCCNC(=N)N)NC(=O)[C@H](Cc2c[nH]c3ccccc23)NC(=O)[C@@H](CC(=O)O)NC(=O)[C@@H]2CCCN2C(=O)[C@H](Cc2cccc3ccccc23)NC1=O` [BCY13117, A-[HArg]-D-Ci[HyP]LVNPLCiiL[1Nal]P[dD]W[HArg]Ciii] (H-A[hArg]DC[Hyp]LVNPLCL[1Nal]P[dD]W[hArg]C-NH2; linker 4-11-18 via TATA; N-terminus and C-terminus assumed) gave a Ki of 1.12 nM.
`CC(C)C[C@@H]1NC(=O)[C@@H]2CSCCC(=O)N3CN(CN(C3)C(=O)CCSC[C@H](NC(=O)[C@H](CC(=O)O)NC(=O)[C@H](CCCCNC(=N)N)NC(=O)[C@H](C)N)C(=O)N3C[C@H](O)C[C@H]3C(=O)N[C@@H](CCCC(=O)O)C(=O)N[C@@H](C(C)C)C(=O)N[C@@H](CC(N)=O)C(=O)N3CCC[C@H]3C(=O)N[C@@H](CC(C)C)C(=O)N2)C(=O)CCSC[C@@H](C(N)=O)NC(=O)[C@H](CCCCNC(=N)N)NC(=O)[C@H](Cc2c[nH]c3ccccc23)NC(=O)[C@@H](CC(=O)O)NC(=O)[C@@H]2CCCN2C(=O)[C@H](Cc2c[nH]cn2)NC1=O` [BCY13130, A-[HArg]-D-Ci[HyP][hGlu]VNPLCiiLHP[dD]W[HArg]Ciii] (H-A[hArg]DC[Hyp][Aad]VNPLCLHP[dD]W[hArg]C-NH2; linker 4-11-18 via TATA; N-terminus and C-terminus assumed) was tested, and the Ki was 7.8 nM.
`CC(C)C[C@@H]1NC(=O)[C@@H]2CSCCC(=O)N3CN(CN(C3)C(=O)CCSC[C@H](NC(=O)[C@H](CC(=O)O)NC(=O)[C@H](CCCCNC(=N)N)NC(=O)[C@H](C)N)C(=O)N3C[C@H](O)C[C@H]3C(=O)N[C@@H](CC(C)C)C(=O)N[C@@H](C(C)C)C(=O)N[C@@H](CC(N)=O)C(=O)N3CCC[C@H]3C(=O)N[C@@H](CC(C)C)C(=O)N2)C(=O)CCSC[C@@H](C(N)=O)NC(=O)[C@H]([C@@H](C)O)NC(=O)[C@H](Cc2c[nH]c3ccccc23)NC(=O)[C@@H](Cc2cccc3ccccc23)NC(=O)[C@@H]2CCCN2C(=O)[C@H](CCC(=O)O)NC1=O` [BCY13118, A-[HArg]-D-Ci[HyP]LVNPLCiiLEP[d1Nal]WTCiii] (H-A[hArg]DC[Hyp]LVNPLCLEP[d1Nal]WTC-NH2; linker 4-11-18 via TATA; N-terminus and C-terminus assumed) was tested, and the Ki was 5.42 nM.
For `CC(C)C[C@@H]1NC(=O)[C@@H]2CSCCC(=O)N3CN(CN(C3)C(=O)CCSC[C@H](NC(=O)[C@H](CC(=O)O)NC(=O)[C@H](CCCCNC(=N)N)NC(=O)[C@H](C)N)C(=O)N3C[C@H](O)C[C@H]3C(=O)N[C@@H](CC(C)C)C(=O)N[C@@H](C(C)C)C(=O)N[C@@H](CC(N)=O)C(=O)N3CCC[C@H]3C(=O)N[C@@H](CC(C)C)C(=O)N2)C(=O)CCSC[C@@H](C(N)=O)NC(=O)[C@H](CCCCNC(=N)N)NC(=O)[C@H](Cc2c[nH]c3ccccc23)NC(=O)[C@@H](CC(=O)O)NC(=O)[C@@H]2CCCN2C(=O)[C@H](Cc2ccccc2)NC1=O` [BCY13920, A[HArg]DCi[HyP]LVNPLCiiLFP[dD]W[HArg]Ciii] (H-A[hArg]DC[Hyp]LVNPLCLFP[dD]W[hArg]C-NH2; linker 4-11-18 via TATA; N-terminus and C-terminus assumed), the Ki was 0.641 nM.
`CN[C@@H](C)C(=O)N[C@@H](CCCCNC(=N)N)C(=O)N[C@@H](CC(=O)O)C(=O)N[C@H]1CSCCC(=O)N2CN3CN(C2)C(=O)CCSC[C@H](NC(=O)[C@H](CC(C)C)NC(=O)[C@@H]2CCCN2C(=O)[C@H](CC(N)=O)NC(=O)[C@H](C(C)C)NC(=O)[C@H](CC(C)C)NC(=O)[C@@H]2C[C@@H](O)CN2C1=O)C(=O)N[C@@H](CC(C)C)C(=O)N[C@@H](CCC(=O)O)C(=O)N1CCC[C@H]1C(=O)N[C@H](CC(=O)O)C(=O)N[C@@H](Cc1c[nH]c2ccccc12)C(=O)N[C@@H]([C@@H](C)O)C(=O)N[C@H](C(N)=O)CSCCC3=O` [BCY13122, [NMeAla]-[HArg]-D-Ci[HyP]LVNPLCiiLEP[dD]WTCiii] (H-[NMeA][hArg]DC[Hyp]LVNPLCLEP[dD]WTC-NH2; linker 4-11-18 via TATA; N-terminus and C-terminus assumed) showed a Ki of 7.8 nM.
With `CC(C)C[C@@H]1NC(=O)[C@@H]2CSCCC(=O)N3CN(CN(C3)C(=O)CCSC[C@H](NC(=O)[C@H](CC(=O)O)NC(=O)[C@H](CCCCNC(=N)N)NC(=O)[C@H](C)N)C(=O)N3C[C@H](O)C[C@H]3C(=O)N[C@@H](CC(C)C)C(=O)N[C@@H](C(C)C)C(=O)N[C@@H](CC(N)=O)C(=O)N3CCC[C@H]3C(=O)N[C@@H](CC(C)C)C(=O)N2)C(=O)CCSC[C@@H](C(N)=O)NC(=O)[C@H](CCCCNC(=N)N)NC(=O)[C@H](Cc2c[nH]c3ccccc23)NC(=O)[C@@H](CC(=O)O)NC(=O)[C@@H]2CCCN2C(=O)[C@H](CCCC(=O)O)NC1=O` [BCY13132, A-[HArg]-D-Ci[HyP]LVNPLCiiL[hGlu]P[dD]W[HArg]Ciii] (H-A[hArg]DC[Hyp]LVNPLCL[Aad]P[dD]W[hArg]C-NH2; linker 4-11-18 via TATA; N-terminus and C-terminus assumed) the Ki was 7.08 nM.
